Data as given in patent US8729031B2, “Compounds” (priority 2009, dated 2014).
Converted amounts (≈) assume the structure as drawn. Where two headings read alike, the source gives them in different places.

Key:
Assay type in all cases: cell-based
S. aureus R33 (MRSA) = conditions: S. aureus R33 (MRSA)
Method: (§1) Susceptibility testing with the exception of Streptococcus pneumoniae was performed by two-fold serial dilutions in Mueller Hinton Broth supplemented with 50 μg/mL Ca^2+. Susceptibility testing of S. pneumoniae was performed by two-fold serial dilutions in Brain-Heart-Infusion Broth supplemented with 50 μg/mL Ca^2+.

S. aureus SH1000 = conditions: S. aureus SH1000
Method: as §1

Streptococcus pneumoniae = experiment: microbe, parasite or virus in culture; conditions: Streptococcus pneumoniae, read-out: MIC
Method: as §1

Question: For “Deoxyactagardine B (2,5-dichlorobenzylamine)monocarboxamide [Example 21]”, which “MIC in μg/mL against strain S. aureus R33 (MRSA)” value (S. aureus R33 (MRSA)) is on record?
Answer: ≦4 μg/mL

Question: What about the “MIC in μg/mL against strain S. aureus SH1000” value (S. aureus SH1000) of the same compound?
Answer: ≦4 μg/mL

Question: What does the source list for “Actagardine (3,5-dichlorobenzylamine)monocarboxamide [Example 2]”?
Answer: MIC in μg/mL against strain S. aureus R33 (MRSA) (S. aureus R33 (MRSA)): ≦4 μg/mL; MIC in μg/mL against strain S. aureus SH1000 (S. aureus SH1000): ≦4 μg/mL

Question: Which “MIC in μg/mL against strain S. aureus SH1000” value (S. aureus SH1000) does the source give for CC[C@H](C)[C@@H]1NC(=O)[C@@H]2NC(=O)[C@H](CC(C)C)NC(=O)[C@H](NC(=O)[C@@H]3CSC[C@@H](N)C(=O)N[C@@H](CO)C(=O)NCC(=O)N[C@@H](Cc4c[nH]c5ccccc45)C(=O)N[C@@H](C(C)C)C(=O)N3)[C@H](C)SC[C@H](NC(=O)[C@H](CCC(=O)O)NC1=O)C(=O)NCC(=O)N[C@H]1C(=O)N[C@@H](CC(C)C)C(=O)N[C@@H](C(C)C)C(=O)N[C@@H](CS[C@H]2C)C(=O)N[C@@H](C)C(=O)N[C@H](C(=O)NCc2ccc(Br)cc2)CS[C@H]1C [Example 9, Deoxyactagardine B [4-bromobenzylamine]monocarboxamide] here?
Answer: 8 µg/mL (≈ 3.92 µM)

Question: What does the source list for “Deoxyactagardine B (2-chlorobenzylamine)monocarboxamide [Example 23]”?
Answer: MIC in μg/mL against strain S. aureus R33 (MRSA) (S. aureus R33 (MRSA)): ≦4 μg/mL; MIC in μg/mL against strain S. aureus SH1000 (S. aureus SH1000): ≦4 μg/mL

Question: Which “MIC in μg/mL against strain S. aureus R33 (MRSA)” value (S. aureus R33 (MRSA)) does the source give for CC[C@H](C)[C@@H]1NC(=O)[C@@H]2NC(=O)[C@H](CC(C)C)NC(=O)[C@H](NC(=O)[C@@H]3CSC[C@@H](N)C(=O)N[C@@H](CO)C(=O)NCC(=O)N[C@@H](Cc4c[nH]c5ccccc45)C(=O)N[C@@H](C(C)C)C(=O)N3)[C@H](C)SC[C@H](NC(=O)[C@H](CCC(=O)O)NC1=O)C(=O)NCC(=O)N[C@H]1C(=O)N[C@@H](CC(C)C)C(=O)N[C@@H](C(C)C)C(=O)N[C@@H](CS[C@H]2C)C(=O)N[C@@H](C)C(=O)N[C@H](C(=O)N2CCN(Cc3ccc(Br)cc3F)CC2)CS[C@H]1C [Example 7, Deoxyactagardine B [4-(2′-fluoro-4′-bromobenzyl)piperazine]monocarboxamide] here?
Answer: 8 µg/mL (≈ 3.76 µM)

Question: And the “MIC in μg/mL against strain S. aureus SH1000” value (S. aureus SH1000)?
Answer: 8 µg/mL (≈ 3.76 µM)

Question: With CC[C@H](C)[C@@H]1NC(=O)[C@@H]2NC(=O)[C@H](CC(C)C)NC(=O)[C@H](NC(=O)[C@@H]3CSC[C@@H](N)C(=O)N[C@@H](CO)C(=O)NCC(=O)N[C@@H](Cc4c[nH]c5ccccc45)C(=O)N[C@@H](C(C)C)C(=O)N3)[C@H](C)SC[C@H](NC(=O)[C@H](CCC(=O)O)NC1=O)C(=O)NCC(=O)N[C@H]1C(=O)N[C@@H](CC(C)C)C(=O)N[C@@H](C(C)C)C(=O)N[C@@H](CS[C@H]2C)C(=O)N[C@@H](C)C(=O)N[C@H](C(=O)N2CCN(c3ccc(Cl)c(Cl)c3)CC2)CS[C@H]1C [Example 10, Deoxyactagardine B [4-(3′,4′-dichlorophenyl)piperazine]monocarboxamide] as the compound, how does the “MIC in μg/mL against strain S. aureus SH1000” value (S. aureus SH1000) read?
Answer: 8 µg/mL (≈ 3.83 µM)

Question: Which results are given for CC[C@H]1OC(=O)[C@H](C)[C@@H](O[C@H]2C[C@@](C)(OC)[C@@H](O)[C@H](C)O2)[C@H](C)[C@@H](O[C@@H]2O[C@H](C)C[C@H](N(C)C)[C@H]2O)[C@](C)(O)C[C@@H](C)C(=O)[C@H](C)[C@@H](O)[C@]1(C)O [Erythromycin, reference compound]?
Answer: MIC (Streptococcus pneumoniae; isolate QB37301, penicillin Resistant): > 32 µg/mL; MIC (Streptococcus pneumoniae; isolate QB37302, penicillin Resistant): > 32 µg/mL; MIC (Streptococcus pneumoniae; isolate QB37303, penicillin Intermediate): ≤ 0.015 µg/mL; MIC (Streptococcus pneumoniae; isolate QB37304, penicillin Susceptible): 8 µg/mL (≈ 10.9 µM); MIC (Streptococcus pneumoniae; isolate QB37306, penicillin Susceptible): ≤ 0.015 µg/mL; MIC (Streptococcus pneumoniae; isolate QB37307, penicillin Intermediate): ≤ 0.015 µg/mL; MIC (Streptococcus pneumoniae; isolate QB37308, penicillin Susceptible): ≤ 0.015 µg/mL; MIC (Streptococcus pneumoniae; isolate QB37309, penicillin Resistant): 2 µg/mL (≈ 2.73 µM); MIC (Streptococcus pneumoniae; isolate QB37310, penicillin Resistant): > 32 µg/mL; MIC (Streptococcus pneumoniae; isolate QB37311, penicillin Resistant): > 32 µg/mL; MIC (Streptococcus pneumoniae; isolate QB37312, penicillin Intermediate): > 32 µg/mL; MIC (Streptococcus pneumoniae; isolate QB37313, penicillin Susceptible): > 32 µg/mL; MIC (Streptococcus pneumoniae; isolate QB37314, penicillin Resistant): > 32 µg/mL; MIC (Streptococcus pneumoniae; isolate QB37315, penicillin Susceptible): ≤ 0.015 µg/mL; MIC (Streptococcus pneumoniae; isolate QB37316, penicillin Susceptible): ≤ 0.015 µg/mL; MIC (Streptococcus pneumoniae; isolate QB37317, penicillin Susceptible): ≤ 0.015 µg/mL; MIC (Streptococcus pneumoniae; isolate QB37318, penicillin Resistant): 4 µg/mL (≈ 5.45 µM); MIC (Streptococcus pneumoniae; isolate QB37319, penicillin Resistant): > 32 µg/mL
